Data on 6 molecules can be found in patent publication US20250154105A1, “POLYCYCLIC COMPOUND AND USE THEREOF” (TYK MEDICINES, INC., priority 2021, published 2025).

The nature of data set [1]: Rat pharmacokinetic experiment. It counts as in vivo. The conditions noted are these: po, male SD rats, gavage (p.o.), 10 mg/kg, plasma. An excerpt:
TEST EXAMPLE 3 PHARMACOKINETIC EXPERIMENT OF COMPOUNDS
Pharmacokinetic test of compounds T-32/T-105/T-253/T-272/T-273/T-277 of the present invention.
Experimental Protocol of Rat Pharmacokinetics
• (1) Required animals: healthy adult SD rats, male, 3 rats, 6-8 weeks old; weighing 200-300 g. • (2) Required equipments: analytical balance, animal weight scale, magnetic stirrer, refrigerated centrifuge, single-channel manual pipettor, etc. • (3) Required reagents: EDTA-Na2 anticoagulant, etc. 11.2 g of EDTA-Na2 was weighed and placed in a reagent flask, 100 mL of normal saline was added, and the flask was shook to completely dissolve it. After the preparation was completed, it was divided into 1.5 mL centrifuge tubes with 20 uL each for whole blood sample collection. • (3) About 10 mg of the sample to be tested was accurately weighed, 5% DMSO after conversion was added to dissolve, then 30% PEG400 and 65% (10% Hp-β-CD in PBS) were added for sonication, and vortex-mixed evenly to obtain a solution with a concentration of 1 mg/mL which is freshly prepared before use. • (4) 0.1 mL of sample was taken into a 1.5 mL centrifuge tube and stored at −80° C. for concentration analysis of drug administration solution. • (5) Animals were kept in rat cages, and fasted (not less than 10 h) from the day before the test(but water was allowed). The animals were separately weighed and marked at the tail on the day of the test. Blank blood was collected before administration. The blood was collected from tail vein. • (6) Route of administration: gavage (p.o.); dosage: 10 mg/kg; administration volume: 10 mL/kg. • (7) Operation process: Use the left hand with anti-bite gloves to catch the rat, make it stand upright, stretch the 16th gastric lavage needle from the throat of the mouth, insert the needle when feeling out no obvious resistance, and then inject the drug into the stomach. • (8) 0.2 ml of whole blood was collected from the tested animals and added into EDTA-Na2 anticoagulant tubes before administration and 0.5 h, 1 h, 2 h, 4 h, 6 h, 8 h, 12 h and 24 h after administration respectively. The tubes were reversed up and down for 3-4 times and mixed evenly, centrifuged at 4° C. at 10000 g for 5 min to separate plasma, and stored at −80° C. for testing. The blood was collected from tail vein. • (9) LC-MS/MS method was established to determine the concentration of original drug in plasma, the blood drug concentration-time curve was drawn, and the main pharmacokinetic parameters were calculated by non-compartment model. • (10) Pharmacokinetic parameters of T-32/T-105/T-253/T-272/T-273/T-277 were shown below in Table 2.

The next data set concerns YAP-TEAD. Nature of the data set: YAP-TEAD inhibitor activity by Nano luciferase method (8xGTiiC-nLuc reporter in 293T cells). The conditions noted are these: Homo sapiens, HEK-293T, 48 hours incubation, read-out: Nano-luciferase detection (IC50). It counts as cell-based. The procedure, abridged: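 293T cells transiently transfected with pGL3B-8xGTiiC-nLuc-CMV-fLuc, seeded 2000 cells/well, then treated 48 h at 37 °C with compounds in 1:3.16 dilution series (top 10,000 nM). Nano luciferase signal read after cell lysis; IC50 from percent of 0 nM control.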

Data set [2] deals with human pleural mesothelioma cells NCI-H226. The data set is described as follows: Cell anti-proliferation experiment (CCK8), NCI-H226. The class given is cell-based. The gist of the method: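 Viability was measured by CCK-8 (3 h, A450) after 3-day treatment with 0.15–333.33 nM compound in 0.1% DMSO medium. Curve-fitted IC50 was based on viability normalised to no-drug and cell-free controls.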

Structures are written as SMILES.

Broadly, the AUC(0-t) is exposure summed from dosing to a finite time, without extrapolation to infinity. Low values mean low exposure, high ones high exposure. For orientation: Cmax means the maximum level reached in the sampled fluid or tissue. The term MRT last denotes the average time that molecules of a dose stay in the body. A word on the Tmax: it is the time from dosing to the highest level. As to `CC(C)NC(=O)c1ccc2c(-c3ccc(C(F)(F)F)cc3)cccc2c1` [Control compound 1, reference compound], in data set [1], the AUC(0-t) amounted to 2180 ng·h/mL, the highest level (Cmax) was 584 ng/mL, the MRT last came to 2.92 h and the Tmax came to 2 h.

A word on the IC50: it is the point on the concentration scale where inhibition reaches its midpoint. Take `Cc1cc(=O)n(-c2ccc(C(F)(F)F)cc2)c2ncc(C(=O)N[C@@H](C)c3cccc(N)n3)cc12` [Example T-457]: the IC50 (with YAP-TEAD; in data set [2]) was no more than 1 µM each time.

Consider `Cc1cc(=O)n(-c2ccc(C(F)(F)F)cc2)c2ncc(C(=O)N[C@@H](C)c3ccccn3)cc12` [Example T-458], for which the IC50 (with YAP-TEAD; in data set [2]) was no more than 1 µM in each case.

Take `Cc1cc(=O)n(-c2ccc(C(F)(F)F)cc2)c2ncc(C(=O)N[C@@H](C)c3ccccc3)cc12` [Example T-459]: the IC50 (in the data set on YAP-TEAD; in data set [2]) was no more than 1 µM in each case.

For the molecule `Cc1cc2cc(C(=O)N[C@@H](C)c3ccccn3)cnc2n(-c2ccc(C(F)(F)F)cc2)c1=O` [Example T-460], the half-inhibitory concentration (IC50) (with YAP-TEAD; in data set [2]) was no more than 1 µM each time.

In the case of `Cc1cc2cc(C(=O)N[C@@H](C)c3ccccc3)cnc2n(-c2ccc(C(F)(F)F)cc2)c1=O` [Example T-462], the IC50 (in the data set with YAP-TEAD; in data set [2]) was no more than 1 µM throughout.
